Results taken from the supplement of paper PMC12494721.
Counter-ions that a name gives are not always drawn.

Columns and labels:
[1] = tested on: Clostridium sporogenes DSM 1664; assay: fold change of Tryptamine concentration vs plate DMSO controls (fold change (ratio)); higher = more amine produced; conditions: incubation time: 27 h, anaerobic, 37 °C
[2] = tested on: Clostridium sporogenes DSM 1664; assay: growth (OD595) fold change vs plate DMSO controls (fold change (ratio)); higher = more growth; conditions: incubation time: 27 h, anaerobic, 37 °C

Compound	fold change of Tryptamine concentration ([1]; 0.6125 µM)	fold change of Tryptamine concentration ([1]; 1.25 µM)	fold change of Tryptamine concentration ([1]; 2.5 µM)	fold change of Tryptamine concentration ([1]; 5 µM)	fold change of Tryptamine concentration ([1]; 10 µM)	fold change of Tryptamine concentration ([1]; 20 µM)	growth ([2]; 0.6125 µM)	growth ([2]; 1.25 µM)	growth ([2]; 2.5 µM)	growth ([2]; 5 µM)	growth ([2]; 10 µM)	growth ([2]; 20 µM)
O=C1NCCN1c1ncc([N+](=O)[O-])s1 [Niridazole]	0.708	0.607	0.181	0.0568	0.0233	0.018	1.08	1.15	0.588	0.258	-0.0146	-0.0213
CC(=O)Oc1ccccc1C(=O)Nc1ncc([N+](=O)[O-])s1 [Nitazoxanide]	1.01	0.989	0.993	0.314	0.0174	0.0175	1.24	1.23	1.29	0.809	-0.0196	-0.0243
CC(C)/N=c1\cc2n(-c3ccc(Cl)cc3)c3ccccc3nc-2cc1Nc1ccc(Cl)cc1 [Clofazimine]	0.975	0.893	0.681	0.365	0.379	0.0193	1.11	1.34	1.22	0.64	0.578	-0.0109
Cc1cc(C(C#N)c2ccc(Cl)cc2)c(Cl)cc1NC(=O)c1cc(I)cc(I)c1O (stereo unspecified) [Closantel]	0.999	1.02	0.991	0.895	0.367	0.0184	0.882	0.866	0.792	0.749	0.364	-0.0258
C[C@]1(Cn2ccnn2)[C@H](C(=O)O)N2C(=O)C[C@H]2S1(=O)=O [Tazobactam]	1	1.01	1.11	1.08	0.984	0.921	1.01	1.05	1.01	1.01	0.648	0.353
NCc1ccccc1CC(=O)N[C@@H]1C(=O)N2C(C(=O)O)=C(CSc3nnnn3CC(=O)O)CS[C@H]12 [Ceforanide]	0.989	1	1.04	0.576	0.035	0.0236	0.842	0.767	0.564	0.36	-0.0035	-0.0325
CC(=O)OCC1=C(C(=O)O)N2C(=O)[C@@H](NC(=O)Cc3cccs3)[C@H]2SC1 [Cephalothin sodium salt]	0.905	0.0953	0.0223	0.0219	0.0236	0.0234	0.841	0.629	-0.0397	-0.0266	-0.0343	-0.0372
N[C@@H](C(=O)N[C@@H]1C(=O)N2C(C(=O)O)=C(Cl)CC[C@H]12)c1ccccc1 [Loracarbef]	0.974	0.86	0.0468	0.0243	0.0223	0.0215	1.15	0.723	-0.0147	-0.0473	-0.0388	-0.0407
